Broadly, the EC50 is the concentration that produces a half-maximal response.

Experimental findings from patent publication US20250353891A1 (MEDIMMUNE LIMITED, priority 2022, published 2025) are described below.

In test [1] the target is human glucagon receptor (hGCGR) (Homo sapiens, UniProt P47871). Kind of test: cAMP production (HTRF) in CHO cells expressing hGCGR. Format: cell-based. On the set-up: expressed in transfected cells. The note with it: Table 6, peptides modified at position 17; cAMP in CHO hGCGR cells; geometric mean; read-out: hGluc-R EC50. Summed up: (§1)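 Read-out: HTRF cAMP (anti-cAMP cryptate donor, cAMP-d2 acceptor in conjugate/lysis buffer), converted to % Delta F and fitted by 4-parameter logistic for EC50. Cell densities were 1×10^5 cells/mL (hGLP-1R) or 2×10^5 cells/mL (hGCGR). Stimulation lasted 30 min at room temperature.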
Chain of human glucagon receptor (hGCGR) (P47871 26-477): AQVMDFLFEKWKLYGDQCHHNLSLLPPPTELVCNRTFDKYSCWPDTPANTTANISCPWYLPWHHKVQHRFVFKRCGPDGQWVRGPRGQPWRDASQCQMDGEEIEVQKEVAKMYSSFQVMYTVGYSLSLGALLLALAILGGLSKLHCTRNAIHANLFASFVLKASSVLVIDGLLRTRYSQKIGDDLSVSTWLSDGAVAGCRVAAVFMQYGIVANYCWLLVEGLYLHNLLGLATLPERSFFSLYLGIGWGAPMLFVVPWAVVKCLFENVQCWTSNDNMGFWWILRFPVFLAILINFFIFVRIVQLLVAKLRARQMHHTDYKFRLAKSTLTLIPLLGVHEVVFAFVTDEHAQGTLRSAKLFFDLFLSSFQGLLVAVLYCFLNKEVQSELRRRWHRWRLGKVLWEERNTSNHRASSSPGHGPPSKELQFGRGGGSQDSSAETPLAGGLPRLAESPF
A general note: Cyclic AMP is a second messenger, typically raised through Gs and lowered through Gi signalling.

The target of test [2] is human GLP-1 receptor (hGLP-1R) (Homo sapiens, UniProt P43220). Nature of the test: cAMP production (HTRF) in CHO cells expressing hGLP-1R. Format: cell-based. Particulars: for EC50: Table 6, peptides modified at position 17, cAMP in CHO hGLP-1R cells, geometric mean, read-out: hGLP-1R EC50; for % Relative Potency Ratio: Table 6, % GLP-1R activity relative to GLP-1 / % GlucR activity relative to glucagon. Set-up: expressed in transfected cells. In outline:
as §1

Molecules are shown by their SMILES. Starred links: 1 amine or outer side, 2 acyl side, 3 side chain; linkers in the order of their positions; H or OH if unused. Non-standard residues stand in square brackets, D forms with d. Residues, ends and D or L forms follow the SMILES beside them. Groups on a side chain read outwards from the residue. *: point of attachment. C20 diacid = O=C(O)CCCCCCCCCCCCCCCCCCC(=O)*; Bip = N[C@@H](Cc1ccc(-c2ccccc2)cc1)C(=O)O; C18 diacid = O=C(O)CCCCCCCCCCCCCCCCC(=O)*; γGlu = O=C(O)[C@H](CCC(=O)[*:2])N[*:1]; αMeF = C[C@](N)(Cc1ccccc1)C(=O)O; AEEA = NCCOCCOCC(=O)O; Aib = CC(C)(N)C(=O)O

Chain of human GLP-1 receptor (hGLP-1R) (P43220 24-463): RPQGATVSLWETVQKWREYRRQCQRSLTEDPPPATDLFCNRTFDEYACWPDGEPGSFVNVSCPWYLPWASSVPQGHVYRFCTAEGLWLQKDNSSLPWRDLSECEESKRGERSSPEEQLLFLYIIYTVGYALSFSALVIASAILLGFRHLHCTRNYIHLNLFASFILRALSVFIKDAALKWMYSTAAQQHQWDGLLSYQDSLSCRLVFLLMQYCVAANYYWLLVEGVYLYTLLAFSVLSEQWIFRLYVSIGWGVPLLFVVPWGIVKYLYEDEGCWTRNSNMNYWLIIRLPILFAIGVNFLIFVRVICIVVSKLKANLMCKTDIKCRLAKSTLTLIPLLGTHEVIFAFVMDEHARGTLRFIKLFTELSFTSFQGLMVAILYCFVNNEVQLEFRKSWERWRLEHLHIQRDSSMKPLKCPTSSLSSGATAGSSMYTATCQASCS

Take `CC(C)C[C@H](NC(=O)[C@H](Cc1c[nH]c2ccccc12)NC(=O)[C@H](CCC(N)=O)NC(=O)[C@@H](NC(=O)[C@H](Cc1ccccc1)NC(=O)[C@H](CC(=O)O)NC(=O)[C@H](CCC(N)=O)NC(=O)[C@H](C)NC(=O)[C@H](CCCNC(=N)N)NC(=O)[C@H](CCCCNC(=O)COCCOCCNC(=O)COCCOCCNC(=O)CC[C@H](NC(=O)CCCCCCCCCCCCCCCCCCC(=O)O)C(=O)O)NC(=O)[C@@H](NC(=O)[C@H](CC(=O)O)NC(=O)[C@H](CC(C)C)NC(=O)[C@](C)(Cc1ccccc1)NC(=O)[C@H](CCCCN)NC(=O)[C@H](CO)NC(=O)[C@@H](NC(=O)[C@H](CC(=O)O)NC(=O)[C@H](CO)NC(=O)[C@@H](NC(=O)[C@H](Cc1ccccc1)NC(=O)[C@@H](NC(=O)CNC(=O)[C@H](CCC(N)=O)NC(=O)C(C)(C)NC(=O)[C@@H](N)Cc1c[nH]cn1)[C@@H](C)O)[C@@H](C)O)C(C)C)[C@@H](C)O)C(C)C)C(=O)N[C@@H](CC(C)C)C(=O)NC(C)(C)C(=O)N[C@@H](CCC(=O)O)C(N)=O` [Peptide 485] (H-H[Aib]QGTFTSDVSK[αMeF]LDTK([AEEA-AEEA-γGlu-C20 diacid])RAQDFVQWLL[Aib]E-NH2; N-terminus assumed): the concentration for a half-maximal effect (EC50) in test [1] amounted to 0.0904 nM. In test [2], the half-maximal effective concentration (EC50) was found to be 0.219 nM and the “% Relative Potency Ratio” value is on record as 0.8.

Consider `CC(C)C[C@H](NC(=O)[C@H](Cc1c[nH]c2ccccc12)NC(=O)[C@H](CCC(N)=O)NC(=O)[C@@H](NC(=O)[C@H](Cc1ccccc1)NC(=O)[C@H](CC(=O)O)NC(=O)[C@H](CCCNC(=N)N)NC(=O)[C@H](C)NC(=O)[C@H](CCCNC(=N)N)NC(=O)[C@H](CCCCNC(=O)COCCOCCNC(=O)COCCOCCNC(=O)CC[C@H](NC(=O)CCCCCCCCCCCCCCCCC(=O)O)C(=O)O)NC(=O)[C@@H](NC(=O)[C@H](CC(=O)O)NC(=O)[C@H](CC(C)C)NC(=O)[C@](C)(Cc1ccccc1)NC(=O)[C@H](CCCCN)NC(=O)[C@H](CO)NC(=O)[C@@H](NC(=O)[C@H](CC(=O)O)NC(=O)[C@H](CO)NC(=O)[C@@H](NC(=O)[C@H](Cc1ccccc1)NC(=O)[C@@H](NC(=O)CNC(=O)[C@H](CCC(N)=O)NC(=O)C(C)(C)NC(=O)[C@@H](N)Cc1c[nH]cn1)[C@@H](C)O)[C@@H](C)O)C(C)C)[C@@H](C)O)C(C)C)C(=O)N[C@@H](CCC(=O)O)C(=O)N[C@@H](C)C(=O)NC(C)(C)C(=O)NCC(=O)O` [Peptide 202] (H-H[Aib]QGTFTSDVSK[αMeF]LDTK([AEEA-AEEA-γGlu-C18 diacid])RARDFVQWLEA[Aib]G-OH; N-terminus assumed), for which the half-maximal effective concentration (EC50) in test [1] was found to be 0.242 nM. For the same compound, in test [2], the concentration giving a half-maximal response (EC50) came to 0.0178 nM and the “% Relative Potency Ratio” value worked out at 26.9.

For the compound `CC(C)C[C@H](NC(=O)[C@H](Cc1ccc(-c2ccccc2)cc1)NC(=O)[C@H](CCCNC(=N)N)NC(=O)[C@@H](NC(=O)[C@H](Cc1ccccc1)NC(=O)[C@H](CC(=O)O)NC(=O)[C@H](CCC(N)=O)NC(=O)[C@H](C)NC(=O)[C@H](CCCNC(=N)N)NC(=O)[C@H](CCCCNC(=O)COCCOCCNC(=O)COCCOCCNC(=O)CC[C@H](NC(=O)CCCCCCCCCCCCCCCCC(=O)O)C(=O)O)NC(=O)[C@H](CO)NC(=O)[C@H](CC(=O)O)NC(=O)[C@H](CC(C)C)NC(=O)[C@](C)(Cc1ccccc1)NC(=O)[C@H](CCCCN)NC(=O)[C@H](CO)NC(=O)[C@@H](NC(=O)[C@H](CC(=O)O)NC(=O)[C@H](CO)NC(=O)[C@@H](NC(=O)[C@H](Cc1ccccc1)NC(=O)[C@@H](NC(=O)CNC(=O)[C@H](CCC(N)=O)NC(=O)C(C)(C)NC(=O)[C@@H](N)Cc1c[nH]cn1)[C@@H](C)O)[C@@H](C)O)C(C)C)C(C)C)C(=O)N[C@@H](CC(C)C)C(=O)NC(C)(C)C(=O)N[C@@H](CCC(=O)O)C(=O)O` [Peptide 432] (H-H[Aib]QGTFTSDVSK[αMeF]LDSK([AEEA-AEEA-γGlu-C18 diacid])RAQDFVR[Bip]LL[Aib]E-OH), the EC50 in test [1] worked out at 1.16 nM; in test [2], 1.38 nM. The “% Relative Potency Ratio” value in test [2] was determined as 1.7.

On to `CC(C)C[C@H](NC(=O)[C@H](Cc1c[nH]c2ccccc12)NC(=O)[C@H](CCC(N)=O)NC(=O)[C@@H](NC(=O)[C@H](Cc1ccccc1)NC(=O)[C@H](CC(=O)O)NC(=O)[C@H](CCCNC(=N)N)NC(=O)[C@H](C)NC(=O)[C@H](CCCNC(=N)N)NC(=O)[C@H](CCCCNC(=O)COCCOCCNC(=O)COCCOCCNC(=O)CC[C@H](NC(=O)CCCCCCCCCCCCCCCCCCC(=O)O)C(=O)O)NC(=O)[C@@H](NC(=O)[C@H](CC(=O)O)NC(=O)[C@H](CC(C)C)NC(=O)[C@](C)(Cc1ccccc1)NC(=O)[C@H](CCCCN)NC(=O)[C@H](CO)NC(=O)[C@@H](NC(=O)[C@H](CC(=O)O)NC(=O)[C@H](CO)NC(=O)[C@@H](NC(=O)[C@H](Cc1ccccc1)NC(=O)[C@@H](NC(=O)CNC(=O)[C@H](CCC(N)=O)NC(=O)C(C)(C)NC(=O)[C@@H](N)Cc1c[nH]cn1)[C@@H](C)O)[C@@H](C)O)C(C)C)[C@@H](C)O)C(C)C)C(=O)N[C@@H](CC(C)C)C(=O)N[C@@H](CCCNC(=N)N)C(=O)NC(C)(C)C(=O)N[C@@H](C)C(=O)O` [Peptide 502] (H-H[Aib]QGTFTSDVSK[αMeF]LDTK([AEEA-AEEA-γGlu-C20 diacid])RARDFVQWLLR[Aib]A-OH; N-terminus assumed), for which, in test [1], the EC50 is 0.175 nM. In test [2], the 50% effective concentration (EC50) turned out to be 0.0821 nM and the “% Relative Potency Ratio” value was found to be 4.2.

Turning to `CC[C@H](C)[C@H](NC(=O)[C@H](Cc1ccccc1)NC(=O)[C@H](CCC(=O)O)NC(=O)[C@H](CCCNC(=N)N)NC(=O)[C@H](C)NC(=O)[C@H](C)NC(=O)[C@H](CCCCNC(=O)COCCOCCNC(=O)COCCOCCNC(=O)CC[C@H](NC(=O)CC[C@H](NC(=O)CCCCCCCCCCCCCCCCC(=O)O)C(=O)O)C(=O)O)NC(=O)[C@H](C)NC(=O)[C@H](CCC(=O)O)NC(=O)[C@H](CC(C)C)NC(=O)[C@](C)(Cc1ccccc1)NC(=O)[C@H](CCCCN)NC(=O)[C@H](CO)NC(=O)[C@@H](NC(=O)[C@H](CC(=O)O)NC(=O)[C@H](CO)NC(=O)[C@@H](NC(=O)[C@H](Cc1ccccc1)NC(=O)[C@@H](NC(=O)CNC(=O)[C@H](CCC(N)=O)NC(=O)C(C)(C)NC(=O)[C@@H](N)Cc1c[nH]cn1)[C@@H](C)O)[C@@H](C)O)C(C)C)C(=O)N[C@@H](C)C(=O)N[C@@H](Cc1c[nH]c2ccccc12)C(=O)N[C@@H](CC(C)C)C(=O)N[C@@H](CC(C)C)C(=O)N[C@@H](CCC(=O)O)C(=O)N[C@H](C(N)=O)[C@@H](C)O` [Peptide 517] (H-H[Aib]QGTFTSDVSK[αMeF]LEAK([AEEA-AEEA-γGlu-γGlu-C18 diacid])AAREFIAWLLET-NH2), the EC50 was 0.738 nM in test [1] and 0.146 nM in test [2]. Also, the “% Relative Potency Ratio” value in test [2] is 10.0.

`CC(C)C[C@H](NC(=O)[C@H](Cc1c[nH]c2ccccc12)NC(=O)[C@H](CCCNC(=N)N)NC(=O)[C@@H](NC(=O)[C@H](Cc1ccccc1)NC(=O)[C@H](CC(=O)O)NC(=O)[C@H](CCCNC(=N)N)NC(=O)[C@H](C)NC(=O)[C@H](CCCNC(=N)N)NC(=O)[C@H](CCCCNC(=O)COCCOCCNC(=O)COCCOCCNC(=O)CC[C@H](NC(=O)CCCCCCCCCCCCCCCCCCC(=O)O)C(=O)O)NC(=O)[C@H](CCCCN)NC(=O)[C@H](CC(=O)O)NC(=O)[C@H](CC(C)C)NC(=O)[C@](C)(Cc1ccccc1)NC(=O)[C@H](CCCCN)NC(=O)[C@H](CO)NC(=O)[C@@H](NC(=O)[C@H](CC(=O)O)NC(=O)[C@H](CO)NC(=O)[C@@H](NC(=O)[C@H](Cc1ccccc1)NC(=O)[C@@H](NC(=O)CNC(=O)[C@H](CCC(N)=O)NC(=O)C(C)(C)NC(=O)[C@@H](N)Cc1c[nH]cn1)[C@@H](C)O)[C@@H](C)O)C(C)C)C(C)C)C(=O)N[C@@H](CC(C)C)C(=O)NC(C)(C)C(=O)N[C@@H](CCC(=O)O)C(=O)O` [Peptide 440] (H-H[Aib]QGTFTSDVSK[αMeF]LDKK([AEEA-AEEA-γGlu-C20 diacid])RARDFVRWLL[Aib]E-OH; N-terminus assumed): the EC50 in test [1] came to 0.081 nM. Also, in test [2], the concentration giving a half-maximal response (EC50) was 0.154 nM and the “% Relative Potency Ratio” value came out at 1.0.

Regarding `CC(C)C[C@H](NC(=O)[C@H](Cc1c[nH]c2ccccc12)NC(=O)[C@H](CCCNC(=N)N)NC(=O)[C@@H](NC(=O)[C@H](Cc1ccccc1)NC(=O)[C@H](CC(=O)O)NC(=O)[C@H](CCC(N)=O)NC(=O)[C@H](C)NC(=O)[C@H](CCCNC(=N)N)NC(=O)[C@H](CCCCNC(=O)COCCOCCNC(=O)COCCOCCNC(=O)CC[C@H](NC(=O)CCCCCCCCCCCCCCCCCCC(=O)O)C(=O)O)NC(=O)[C@@H](NC(=O)[C@H](CC(=O)O)NC(=O)[C@H](CC(C)C)NC(=O)[C@](C)(Cc1ccccc1)NC(=O)[C@H](CCCCN)NC(=O)[C@H](CO)NC(=O)[C@@H](NC(=O)[C@H](CC(=O)O)NC(=O)[C@H](CO)NC(=O)[C@@H](NC(=O)[C@H](Cc1ccccc1)NC(=O)[C@@H](NC(=O)CNC(=O)[C@H](CCC(N)=O)NC(=O)C(C)(C)NC(=O)[C@@H](N)Cc1c[nH]cn1)[C@@H](C)O)[C@@H](C)O)C(C)C)[C@@H](C)O)C(C)C)C(=O)N[C@@H](CC(C)C)C(=O)N[C@@H](CCCNC(=N)N)C(=O)NC(C)(C)C(=O)N[C@@H](CCCCN)C(=O)O` [Peptide 494], the EC50 is 0.212 nM in test [1] and 0.0987 nM in test [2]. Also, the “% Relative Potency Ratio” value in test [2] was 4.3.
